Results: US10597388B2, “Pyridazinone herbicides” (FMC CORPORATION, priority 2014, dated 2020)

Assays:
Format in all cases: in vivo
[1] = tested on: foxtail, giant (giant foxtail, Setaria faberii); experiment: Test C greenhouse herbicide test, pre- and postemergence; conditions: Postemergence
How it was run: (§1)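 Each species was treated both before emergence, in a loam–sand soil mix, and after emergence, as 1- to 4-leaf seedlings in peat-based potting medium. Plants stayed in the greenhouse 13 to 15 d, then were scored from 0 (no effect) to 100 (complete control) relative to controls.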

[2] = tested on: wheat (winter wheat, Triticum aestivum); experiment: as above; conditions: Postemergence
How it was run: as §1

corn (Zea mays) = experiment: as above; conditions: for Plant response rating, Corn: Postemergence; for Corn plant response rating: postemergence, 62 g ai/ha
How it was run: as §1

[3] = tested on: johnsongrass (Sorghum halepense); experiment: as above; conditions: Postemergence
How it was run: as §1

[4] = tested on: morningglory (Ipomoea coccinea); experiment: as above; conditions: Postemergence
How it was run: as §1

[5] = tested on: pigweed (Amaranthus retroflexus); experiment: as above; conditions: Postemergence
How it was run: as §1

[6] = tested on: oilseed rape (Brassica napus); experiment: as above; conditions: Postemergence
How it was run: as §1

[7] = tested on: blackgrass (Alopecurus myosuroides); experiment: as above; conditions: for Plant response rating, Blackgrass: Postemergence; for Blackgrass plant response rating: postemergence, 62 g ai/ha
How it was run: as §1

[8] = tested on: lambsquarters (Chenopodium album); experiment: as above; conditions: Postemergence
How it was run: as §1

[9] = tested on: nutsedge, yellow (yellow nutsedge, Cyperus esculentus); experiment: as above; conditions: Postemergence
How it was run: as §1

[10] = tested on: waterhemp (common waterhemp, Amaranthus rudis); experiment: as above; conditions: Postemergence
How it was run: as §1

[11] = tested on: crabgrass, large (large crabgrass, Digitaria sanguinalis); experiment: as above; conditions: for Plant response rating, Crabgrass, Large: Postemergence; for Crabgrass, Large plant response rating: postemergence, 62 g ai/ha
How it was run: as §1

[12] = tested on: barnyardgrass (Echinochloa crus-galli); experiment: as above; conditions: for Plant response rating, Barnyardgrass: Postemergence; for Barnyardgrass plant response rating: postemergence, 62 g ai/ha
How it was run: as §1

[13] = tested on: velvetleaf (Abutilon theophrasti); experiment: as above; conditions: Postemergence
How it was run: as §1

kochia (Kochia scoparia) = experiment: Test C greenhouse herbicide test, postemergence; conditions: Postemergence
How it was run: (§2)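 Postemergence foliar treatment, 1- to 4-leaf stage (2–18 cm), peat/vermiculite medium; greenhouse 13–15 d; visual rating vs controls, 0 = no effect, 100 = complete control; dash = no result.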

[14] = tested on: oat, wild (wild oat, Avena fatua); experiment: Test C greenhouse herbicide test, postemergence; conditions: Postemergence
How it was run: as §2

[15] = 31 g ai/ha, scale 0 to 100 (0 no effect, 100 complete control)
[16] = 125 g ai/ha, scale 0 to 100, 0 is no effect, 100 is complete control
[17] = 250 g ai/ha, scale 0 to 100, 0 no effect, 100 complete control, 13 to 15 d
[18] = scale 0 to 100, 0 no effect, 100 complete control

Structure (SMILES): Cc1nn(C)c(=O)c(-c2cc(F)cc3ccccc23)c1OS(C)(=O)=O [Compound 115]
- Plant response rating, Foxtail, Giant [1, 15]: 5
- Plant response rating, Foxtail, Giant [1, 16]: 20
- Plant response rating, Foxtail, Giant [1, 17]: 35
- Plant response rating, Wheat [2, 15]: 0
- Plant response rating, Wheat [2, 16]: 0
- Plant response rating, Wheat [2, 17]: 5
- Plant response rating, Corn (corn (Zea mays); [15]): 5
- Plant response rating, Corn (corn (Zea mays); [16]): 5
- Plant response rating, Corn (corn (Zea mays); [17]): 15
- Corn plant response rating (corn (Zea mays); [18]): 5
- Plant response rating, Johnsongrass [3, 15]: 5
- Plant response rating, Johnsongrass [3, 16]: 10
- Plant response rating, Johnsongrass [3, 17]: 20
- Plant response rating, Morningglory [4, 15]: 55
- Plant response rating, Morningglory [4, 16]: 95
- Plant response rating, Morningglory [4, 17]: 100
- Plant response rating, Pigweed [5, 15]: 30
- Plant response rating, Pigweed [5, 16]: 70
- Plant response rating, Pigweed [5, 17]: 90
- Plant response rating, Oilseed Rape [6, 15]: 0
- Plant response rating, Oilseed Rape [6, 16]: 0
- Plant response rating, Oilseed Rape [6, 17]: 0
- Plant response rating, Blackgrass [7, 15]: 0
- Plant response rating, Blackgrass [7, 16]: 20
- Plant response rating, Blackgrass [7, 17]: 35
- Blackgrass plant response rating [7, 18]: 10
- Plant response rating, Lambsquarters [8, 15]: 70
- Plant response rating, Lambsquarters [8, 16]: 90
- Plant response rating, Lambsquarters [8, 17]: 98
- Plant response rating, Nutsedge, Yellow [9, 15]: 40
- Plant response rating, Nutsedge, Yellow [9, 16]: 65
- Plant response rating, Nutsedge, Yellow [9, 17]: 80
- Plant response rating, Waterhemp [10, 15]: 65
- Plant response rating, Waterhemp [10, 16]: 90
- Plant response rating, Waterhemp [10, 17]: 90
- Plant response rating, Crabgrass, Large [11, 15]: 10
- Plant response rating, Crabgrass, Large [11, 16]: 20
- Plant response rating, Crabgrass, Large [11, 17]: 25
- Crabgrass, Large plant response rating [11, 18]: 20
- Plant response rating, Barnyardgrass [12, 15]: 10
- Plant response rating, Barnyardgrass [12, 16]: 35
- Plant response rating, Barnyardgrass [12, 17]: 45
- Barnyardgrass plant response rating [12, 18]: 20
- Plant response rating, Velvetleaf [13, 15]: 15
- Plant response rating, Velvetleaf [13, 16]: 70
- Plant response rating, Velvetleaf [13, 17]: 65
- Plant response rating, Kochia (kochia (Kochia scoparia); [15]): 70
- Plant response rating, Kochia (kochia (Kochia scoparia); [16]): 90
- Plant response rating, Kochia (kochia (Kochia scoparia); [17]): 90
- Plant response rating, Oat, Wild [14, 15]: 55
- Plant response rating, Oat, Wild [14, 16]: 80
- Plant response rating, Oat, Wild [14, 17]: 90

Structure (SMILES): Cc1nn(C)c(=O)c(-c2ccc(F)c3ccccc23)c1OC(=O)CC(F)(F)F [Compound 123]
- Plant response rating, Foxtail, Giant [1, 15]: 20
- Plant response rating, Foxtail, Giant [1, 16]: 35
- Plant response rating, Foxtail, Giant [1, 17]: 80
- Plant response rating, Wheat [2, 15]: 5
- Plant response rating, Wheat [2, 16]: 15
- Plant response rating, Wheat [2, 17]: 20
- Plant response rating, Corn (corn (Zea mays); [15]): 10
- Plant response rating, Corn (corn (Zea mays); [16]): 20
- Plant response rating, Corn (corn (Zea mays); [17]): 20
- Corn plant response rating (corn (Zea mays); [18]): 15
- Plant response rating, Johnsongrass [3, 15]: 5
- Plant response rating, Johnsongrass [3, 16]: 20
- Plant response rating, Johnsongrass [3, 17]: 25
- Plant response rating, Morningglory [4, 15]: 95
- Plant response rating, Morningglory [4, 16]: 98
- Plant response rating, Morningglory [4, 17]: 100
- Plant response rating, Pigweed [5, 15]: 65
- Plant response rating, Pigweed [5, 16]: 80
- Plant response rating, Pigweed [5, 17]: 98
- Plant response rating, Oilseed Rape [6, 15]: 0
- Plant response rating, Oilseed Rape [6, 16]: 0
- Plant response rating, Oilseed Rape [6, 17]: 5
- Plant response rating, Blackgrass [7, 15]: 15
- Plant response rating, Blackgrass [7, 16]: 45
- Plant response rating, Blackgrass [7, 17]: 45
- Blackgrass plant response rating [7, 18]: 35
- Plant response rating, Lambsquarters [8, 15]: 95
- Plant response rating, Lambsquarters [8, 16]: 100
- Plant response rating, Lambsquarters [8, 17]: 100
- Plant response rating, Nutsedge, Yellow [9, 15]: 55
- Plant response rating, Nutsedge, Yellow [9, 16]: 85
- Plant response rating, Nutsedge, Yellow [9, 17]: 90
- Plant response rating, Waterhemp [10, 15]: 80
- Plant response rating, Waterhemp [10, 16]: 100
- Plant response rating, Waterhemp [10, 17]: 100
- Plant response rating, Crabgrass, Large [11, 15]: 10
- Plant response rating, Crabgrass, Large [11, 16]: 30
- Plant response rating, Crabgrass, Large [11, 17]: 75
- Crabgrass, Large plant response rating [11, 18]: 35
- Plant response rating, Barnyardgrass [12, 15]: 20
- Plant response rating, Barnyardgrass [12, 16]: 40
- Plant response rating, Barnyardgrass [12, 17]: 70
- Barnyardgrass plant response rating [12, 18]: 25
- Plant response rating, Velvetleaf [13, 15]: 65
- Plant response rating, Velvetleaf [13, 16]: 85
- Plant response rating, Velvetleaf [13, 17]: 95
- Plant response rating, Kochia (kochia (Kochia scoparia); [15]): 95
- Plant response rating, Kochia (kochia (Kochia scoparia); [16]): 95
- Plant response rating, Kochia (kochia (Kochia scoparia); [17]): 98
- Plant response rating, Oat, Wild [14, 15]: 70
- Plant response rating, Oat, Wild [14, 16]: 90
- Plant response rating, Oat, Wild [14, 17]: 95
